Values quoted from earlier work in patent publication US20150239832A1 (Neuro Pro Therapeutics, Inc., priority 2012, published 2015).

Key:
rat models of anxiety = conditions: Krystal et al., PLoS ONE 2012
[1] = tested on: patients with medically intractable seizures; conditions: intravenously administered, intraoperative
rats = conditions: whole animal studies in rats

Row | SMILES | effect on conditioned anxiety (rat models of anxiety) | effect on interictal spiking and stimulation-evoked afterdischarges of the neocortex [1] | effect on kainic acid status (rats) | potency in blocking epileptiform activity (focal bicuculline or 4-AP) and stimulation-evoked afterdischarges (primate cortex) | affinity for NKCC1 relative to KCC2 (NKCC1 over KCC2)
1 | NS(=O)(=O)c1cc(C(=O)O)c(NCc2ccco2)cc1Cl [furosemide] | significantly reduce conditioned anxiety | blocked spontaneously occurring interictal spiking and stimulation-evoked afterdischarges | – | – | –
2 | CCCCNc1cc(C(=O)O)cc(S(N)(=O)=O)c1Oc1ccccc1 [bumetanide] | significantly reduce conditioned anxiety | – | more potent than furosemide | more potent than furosemide | significantly greater affinity for NKCC1 over KCC2
